These results are taken from ChEMBL document CHEMBL1201862, “PubChem BioAssay data set” (2004).

Test in all cases: NCI anticancer screen, dose series, 48 h
Experiment [1] concerns BT-549.
The subject of experiment [2] is DLD-1.
Experiment [3] deals with DMS-114.
Experiment [4] relates to DMS-273.
Experiment [5] has as its system HOP-18.
The subject of experiment [6] is KM-20L2.
The subject of experiment [7] is LXFL 529.
The subject of experiment [8] is XF498.

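All cell lines were grown in 96-well plates and treated with compound for 48 hours. GI50 is the concentration that inhibits growth by half.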 Active and inactive are the calls of the source. Rule as the data show it: active = GI50 up to about 1.1 µM and inactive = higher. A value given as a limit tells only on which side of the number the result lay.

Regarding `CC(CO)(CO)Nc1ncnc2ccccc12`, the GI50 in experiment [1] is > 100 µM (inactive).
The same measure, in the same setting: with `CNC1(c2cc3ccccc3s2)CCCCC1` the figure was 67 µM (inactive).
Regarding `COc1ccc2c(c1)CC[C@@H]1[C@@H]2CC[C@]2(C)[C@@H](O)/C(=C/c3ccncc3)C[C@@H]12`, the GI50 in experiment [1] was 15.7 µM (inactive).
For the compound `C=CCN(c1cc(OC)c2[nH]c(C(=O)O)c(C)c2c1[N+](=O)[O-])S(C)(=O)=O`, the GI50 in experiment [1] is > 100 µM (inactive).
Same read-out and setting: with `CCOC(NC(=O)CC)(C(F)(F)F)C(F)(F)F` the figure was > 100 µM (inactive).
As to `O=C(c1cccs1)N(C(=S)N1CCN(c2ccccc2)CC1)C1CCCCC1`, the GI50 is > 100 µM (inactive) in experiment [2]; 58.2 µM (inactive) in experiment [3]; > 100 µM (inactive) in experiment [4]; > 100 µM (inactive) in experiment [5]; > 100 µM (inactive) in experiment [6]; > 100 µM (inactive) in experiment [7].
As to `NC(=O)C1CCCN1C(=O)C(Cc1c[nH]cn1)NC(=O)C1CCCC1` (stereo not drawn), the GI50 in experiment [1] was > 100 µM (inactive).
Consider `O=C1OC(C2Cc3ccc4ccccc4c3C2=O)c2ccccc21` (stereo not drawn), for which the GI50 in experiment [1] is 37 µM (inactive).
Consider `O=C(O)CN1CCSc2ccccc2CN(CC(=O)O)CCSc2ccccc2C1`, for which the GI50 in experiment [2], in experiment [4], in experiment [5], in experiment [6] and in experiment [7] was > 100 µM (inactive) in each case.
`O=C1OC(c2ccccc2)=N/C1=C\c1ccc([N+](=O)[O-])cc1`: the GI50 in experiment [1] is 15.3 µM (inactive).
As to `CC(=O)O[C@H]1CC[C@@]2(C)C(=CC[C@H]3C4=CC=C(C(C)=O)[C@@]4(C)CCC32)C1` (stereo partly drawn), the GI50 in experiment [2] was 37.8 µM (inactive); in experiment [4], 28.2 µM (inactive); in experiment [5], > 100 µM (inactive); in experiment [6], 44.1 µM (inactive); in experiment [7], 30.5 µM (inactive).
For the compound `CCCNC1=C(C)C(=O)C2=C(C1=O)[C@H](COC(N)=O)[C@]1(OC)[C@@H]3N[C@@H]3CN21`, the GI50 in experiment [2] was 5 µM (inactive); in experiment [3] it was 4 µM (inactive); in experiment [4], 0.257 µM (active); in experiment [5] it was 13.4 µM (inactive); in experiment [6], 8.75 µM (inactive); in experiment [8], 4.78 µM (inactive).
As to `CCCCCOC(=O)c1cc2cc(CCl)ccc2oc1=O`, the GI50 in experiment [1] is 11.9 µM (inactive).
`N#CC(/N=N/c1ccccc1)c1nc2ccccc2o1` (stereo not drawn): in experiment [1], the GI50 is 20.7 µM (inactive).
On the same count and under the same terms, with `C=CCOCn1cc(F)c(=O)[nH]c1=O` the figure was > 100 µM (inactive); with `C=CCn1c(-c2ccc(Cl)cc2)cs/c1=N\c1ccccc1OC`, > 52.5 µM (inactive).
Turning to `O=C1N/C(=N/N=C\c2ccccc2)N/C1=C/c1ccc(Cl)cc1`, in experiment [1], the GI50 was 16.5 µM (inactive).
With `Cc1sc2nc3n(c(=O)c2c1C)N=CN(c1ccc(F)cc1)C3`, the GI50 in experiment [1] is > 100 µM (inactive).
On the same count and under the same terms, with `CCOC(=O)/C(C(=O)NC(C)C)=C(/N)N1CCOCC1` the figure was > 100 µM (inactive); with `CCCCCC(O)C1C(=O)OC(C)C(O)/C=C/C=C/C=C/C=C\C=C(\C)C(O)CC(O)CC(O)CC(O)CC(O)CC(O)CC1O` (stereo not drawn), > 50 µM (inactive).
Regarding `CSc1nc(C)c2c(n1)SCC2`, the GI50 in experiment [1] was > 10 µM (inactive).
As for `CC(C)CCCC(C)[C@H]1CCC2[C@@H]3CCC4Nc5nocc5C[C@]4(C)C3CC[C@@]21C` (stereo partly drawn), the GI50 was 19.7 µM (inactive) in experiment [2]; 19.2 µM (inactive) in experiment [4]; 13.6 µM (inactive) in experiment [5]; 21.2 µM (inactive) in experiment [6]; 11.8 µM (inactive) in experiment [7].
As to `NC(=O)CCCC(NCc1c2ccccc2nc2ccccc12)C(=O)O` (stereo not drawn), the GI50 was 35.4 µM (inactive) in experiment [2]; 37.2 µM (inactive) in experiment [3]; 28.2 µM (inactive) in experiment [4]; 43.5 µM (inactive) in experiment [6]; 39.9 µM (inactive) in experiment [7]; 21 µM (inactive) in experiment [8].
In the case of `C=C1C[C@@H]2CC[C@@]34CC5O[C@H]6C(O[C@H]7CC[C@H](CC(=O)O[C@@H]8[C@@H](C)[C@@H]9O[C@@H]%10C[C@]%11(C[C@@H]%12O[C@]%13(C[C@H](C)[C@@H]%14O[C@@H]%15CC(C(O)CO)O[C@@H]%15C[C@@H]%14O%13)C[C@H](C)[C@@H]%12O%11)O[C@@H]%10C[C@@H]9O[C@H]8CC8O[C@@H](CC[C@@H]1O2)C[C@@H](C)C8(O)CO)O[C@@H]7[C@@H]6O3)[C@H]5O4` (stereo partly drawn), the GI50 in experiment [1] was 0.00891 µM (active).
Take `O=C(NC(OCc1ccccc1)(C(F)(F)F)C(F)(F)F)OCc1ccccc1`: in experiment [1], the GI50 is 15.4 µM (inactive).
As to `Cc1cc(S(=O)(=O)Nc2nnc3ccccn23)c(S)cc1Cl`, the GI50 in experiment [1] was > 100 µM (inactive).
For the compound `Cc1cc(N(CCC#N)CCC#N)ccc1/C=C/C(=O)Nc1ccccc1Cl`, the GI50 in experiment [2], in experiment [3], in experiment [4], in experiment [6], in experiment [7] and in experiment [8] was > 100 µM (inactive) throughout.
In the case of `Cc1cccc(=O)c([O-])c1.Cc1cccc(=O)c([O-])c1.[Bi+3].[Cl-]`, the GI50 in experiment [2] was 9.95 µM (inactive); in experiment [3], 3.3 µM (inactive); in experiment [4], 7.29 µM (inactive); in experiment [6], 2.99 µM (inactive).
`CCOC(=O)c1c(N/C(S)=N/c2ccccc2)sc2c1CCOC2`: the GI50 in experiment [1] was 2.08 µM (inactive).
Consider `CCOC(=O)C1(C/C=C\CBr)CCCCCCC1=O` (stereo not drawn), for which, in experiment [1], the GI50 is > 100 µM (inactive).
Consider `Nc1ncnc2c1ncn2C1OC(C(=O)OCCO)C(O)C1O` (stereo not drawn), for which, in experiment [1], the GI50 was > 100 µM (inactive).
As for `CCCC(O)C(NC(=O)CCl)C(=O)O` (stereo not drawn), the GI50 in experiment [2], in experiment [3], in experiment [4], in experiment [5], in experiment [6] and in experiment [8] was > 100 µM (inactive) in each case.
For the compound `CN(C)c1nc2nonc2nc1Nc1ccccc1`, the GI50 in experiment [1] is > 100 µM (inactive).
For `CSCCC(NC(=O)C(Cc1ccccc1)NC(=O)CNC(=O)CNC(=O)C(N)Cc1ccc(O)cc1)C(=O)O` (stereo not drawn), the GI50 was > 100 µM (inactive) in experiment [3], > 100 µM (inactive) in experiment [4], > 100 µM (inactive) in experiment [5] and > 20.3 µM (inactive) in experiment [6].
Regarding `O=P1(c2ccccc2)C2=CCC=CC2C(c2ccccc2)N1Cc1ccccc1` (stereo not drawn), the GI50 in experiment [1] was 17.4 µM (inactive).
On to `Cc1ccc(OCC2OC(n3cnc4nc(N)nc(Cl)c43)CC2Oc2ccc(C)cc2)cc1` (stereo not drawn), for which the GI50 in experiment [1] is 22.5 µM (inactive).
On to `CCC(c1c[nH]c2ccc(Br)cc12)c1c[nH]c2ccc(Br)cc12`, for which the GI50 in experiment [1] is 10.3 µM (inactive).
Take `O=C1CC2(CCC3=C(O2)c2ccccc2NC(=O)C3)C(=O)c2ccccc2N1` (stereo not drawn): the GI50 in experiment [3], in experiment [4], in experiment [6], in experiment [7] and in experiment [8] was > 100 µM (inactive) each time.
For `Cc1ccc(SC[C@@]2(C(F)F)NC(=O)NC2=O)cc1`, the GI50 in experiment [1] is > 100 µM (inactive).
The same measure, in the same setting: with `CN(CCC#N)c1ccc(/C=C2\SC(=S)NC2=O)cc1` the figure was 21.7 µM (inactive).
For the compound `NNC(=S)N/N=C(\CCCC(=O)NCCc1ccccc1)CC(=O)c1ccccc1`, the GI50 in experiment [2], in experiment [3], in experiment [5], in experiment [6] and in experiment [7] was > 100 µM (inactive) each time.
`COC1/C=C/C(C)C(OC)CC(O)/C=C/C(C)C(C(C)C(OC)C(C)CCC(=O)C(C)C(C/C=C/N(C)C=O)OC)OC(=O)/C=C/C=C(\C)CC(OC)C(OC)C2=CC(=O)O[C@@H](C(C)C(OC)C1)[C@H]2O` (stereo partly drawn): in experiment [1], the GI50 was 0.0578 µM (active).
`OCc1cc2c(ccc3sc4ccc5sc6ccc7ncccc7c6c5c4c32)s1`: the GI50 in experiment [1] is 14.3 µM (inactive).
Regarding `CCCc1ccc(NCc2cc(OC)c(OC)c(OC)c2)cc1`, the GI50 in experiment [2] is 23.9 µM (inactive); in experiment [3], 15.6 µM (inactive); in experiment [5] it was 31.3 µM (inactive); in experiment [6] it was 28.6 µM (inactive); in experiment [7], 17 µM (inactive); in experiment [8] it was 18.9 µM (inactive).
Take `CC(O)C1(CNc2cc(Cl)nc(N)n2)CCCCC1` (stereo not drawn): in experiment [1], the GI50 was 70.1 µM (inactive).
As to `CCOC(=O)c1ccc2c(=O)n3c(C(=O)OCC)ccc3c(=O)n12`, the GI50 in experiment [1] is > 100 µM (inactive).
Turning to `CO/C(=N\N=C(/C)C(F)(F)F)c1ccncc1`, the GI50 in experiment [1] is > 100 µM (inactive).
For the compound `O=C1/C(=C2/CCCN2)C(c2ccc[nH]2)=NN1c1ccccc1`, the GI50 in experiment [1] was > 100 µM (inactive).
On to `COc1ccc(OC)c(CC(C)N)c1` (stereo not drawn), for which the GI50 in experiment [2], in experiment [3], in experiment [5], in experiment [6], in experiment [7] and in experiment [8] was > 100 µM (inactive) each time.
`Oc1c(C(Nc2ccccn2)c2ccccc2)ccc2cccnc12` (stereo not drawn): the GI50 in experiment [1] is 5.25 µM (inactive).
Regarding `C(/C=N/c1ccccc1)=C(/Nc1ccccc1)c1ccc2ccccc2c1`, the GI50 in experiment [1] is 1.08 µM (active).
Regarding `C[C@@H](N[C@H]1CCC[C@@H]1O)c1ccccc1.C[C@@H](N[C@H]1CCC[C@H]1O)c1ccccc1`, the GI50 was > 100 µM (inactive) in experiment [3]; > 100 µM (inactive) in experiment [4]; 48.8 µM (inactive) in experiment [5]; 38.2 µM (inactive) in experiment [6]; > 100 µM (inactive) in experiment [8].
For the compound `O=C1CSC(c2ccc(Cl)cc2)N1c1ccc(Oc2ccc(Cl)cc2)c(Cl)c1` (stereo not drawn), in experiment [1], the GI50 was 15 µM (inactive).
With `COc1cc(C2SCC(=O)N2c2cc(Cl)c(Cl)cc2Cl)cc(OC)c1OC` (stereo not drawn), the GI50 in experiment [1] is 25.4 µM (inactive).
On to `O=Cc1ccc(-c2cccc([N+](=O)[O-])c2)s1`, for which the GI50 in experiment [1] was 81.1 µM (inactive).
Take `CC(=O)Nc1cccc(/N=N/N(C)C)c1`: the GI50 in experiment [2] was > 31.6 µM (inactive); in experiment [3] it was > 100 µM (inactive); in experiment [4], > 100 µM (inactive); in experiment [5], > 100 µM (inactive); in experiment [6], > 100 µM (inactive); in experiment [8], > 100 µM (inactive).
`COc1ccc(C2OC[C@H]3O[C@@H](OCc4ccccc4)[C@H](O)[C@@H](O)[C@@H]3O2)cc1` (stereo partly drawn): in experiment [1], the GI50 was > 100 µM (inactive).
With `C[C@@H]1OC(=O)/C(=C\N(C)C)[C@H]2CC(=O)N(CCc3cn(S(=O)(=O)C(F)(F)F)c4ccccc34)C[C@H]12`, in experiment [1], the GI50 is > 100 µM (inactive).
